Reference: the supplement of paper PMC10307832

Tests used:
Assay in all cases: relative viability (nuclei count vs DMSO), 5 days (fraction); higher = more cells survive
Dovitinib + Luminespib = compound: CN1CCN(c2ccc3nc(-c4c(N)c5c(F)cccc5[nH]c4=O)[nH]c3c2)CC1 [Dovitinib] + CCNC(=O)c1noc(-c2cc(C(C)C)c(O)cc2O)c1-c1ccc(CN2CCOCC2)cc1 [Luminespib] (partner 0.01 µM)
Procedure, shortened: (§1)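 The day after seeding in 1536-well plates, lung cancer cell lines were treated by pin tool with a single drug, or with a fixed anchor-drug dose together with five library-drug doses (not always all listed) in √10 steps. After 5 days, a combined fix-and-stain solution (final 0.05% Triton X-100, 1% formaldehyde, 1 ug/ml Hoechst) was added. Nuclei counted on 4× images gave relative viability as treated counts over vehicle counts, reported as the median of duplicate plates.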

Dovitinib + Olaparib = compound: CN1CCN(c2ccc3nc(-c4c(N)c5c(F)cccc5[nH]c4=O)[nH]c3c2)CC1 [Dovitinib] + O=C(c1cc(Cc2n[nH]c(=O)c3ccccc23)ccc1F)N1CCN(C(=O)C2CC2)CC1 [Olaparib] (partner 8 µM)
Procedure, shortened: as §1

Dovitinib + Decitabine = compound: CN1CCN(c2ccc3nc(-c4c(N)c5c(F)cccc5[nH]c4=O)[nH]c3c2)CC1 [Dovitinib] + Nc1ncn([C@H]2C[C@H](O)[C@@H](CO)O2)c(=O)n1 [Decitabine] (partner 2 µM)
Procedure, shortened: as §1

Dovitinib + Lapatinib = compound: CN1CCN(c2ccc3nc(-c4c(N)c5c(F)cccc5[nH]c4=O)[nH]c3c2)CC1 [Dovitinib] + CS(=O)(=O)CCNCc1ccc(-c2ccc3ncnc(Nc4ccc(OCc5cccc(F)c5)c(Cl)c4)c3c2)o1 [Lapatinib] (partner 2 µM)
Procedure, shortened: as §1

Row | Cell Line | relative viability (Dovitinib + Luminespib; first compound 0.02 µM) | relative viability (Dovitinib + Luminespib; first compound 0.06325 µM) | relative viability (Dovitinib + Luminespib; first compound 0.2 µM) | relative viability (Dovitinib + Luminespib; first compound 0.6325 µM) | relative viability (Dovitinib + Luminespib; first compound 2 µM) | relative viability (Dovitinib + Olaparib; first compound 0.02 µM) | relative viability (Dovitinib + Olaparib; first compound 0.06325 µM) | relative viability (Dovitinib + Olaparib; first compound 0.2 µM) | relative viability (Dovitinib + Olaparib; first compound 0.6325 µM) | relative viability (Dovitinib + Olaparib; first compound 2 µM) | relative viability (Dovitinib + Decitabine; first compound 0.02 µM) | relative viability (Dovitinib + Decitabine; first compound 0.06325 µM) | relative viability (Dovitinib + Decitabine; first compound 0.2 µM) | relative viability (Dovitinib + Decitabine; first compound 0.6325 µM) | relative viability (Dovitinib + Decitabine; first compound 2 µM) | relative viability (Dovitinib + Lapatinib; first compound 0.02 µM) | relative viability (Dovitinib + Lapatinib; first compound 0.06325 µM) | relative viability (Dovitinib + Lapatinib; first compound 0.2 µM) | relative viability (Dovitinib + Lapatinib; first compound 0.6325 µM) | relative viability (Dovitinib + Lapatinib; first compound 2 µM)
1 | RERF-LC-KJ | 1.32 | 1.25 | 1.4 | 1.19 | 1.47 | 0.932 | 0.892 | 0.939 | 0.982 | 0.896 | 0.709 | 0.729 | 0.701 | 0.685 | 0.637 | 0.94 | 0.884 | 0.853 | 0.909 | 0.825
2 | LOU-NH91 | 0.322 | 0.308 | 0.335 | 0.327 | 0.349 | 0.94 | 0.922 | 0.93 | 0.907 | 0.948 | 0.817 | 0.812 | 0.817 | 0.816 | 0.813 | 0.794 | 0.675 | 0.717 | 0.858 | 0.726
3 | NCI-H2347 | 0.426 | 0.442 | 0.661 | 0.357 | 0.255 | 0.568 | 0.59 | 0.621 | 0.641 | 0.606 | 0.642 | 0.545 | 0.644 | 0.682 | 0.623 | 0.588 | 0.882 | 1 | 0.924 | 0.967
4 | NCI-H2126 | 0.937 | 0.864 | 1.09 | 0.877 | 0.83 | 0.871 | 0.934 | 0.92 | 0.936 | 0.878 | 0.605 | 0.573 | 0.676 | 0.556 | 0.599 | 0.692 | 0.726 | 0.744 | 0.734 | 0.797
5 | HCC-827 | 0.854 | 0.676 | 0.596 | 0.509 | 0.717 | 0.626 | 0.697 | 0.646 | 0.68 | 0.678 | 0.308 | 0.353 | 0.324 | 0.336 | 0.338 | 0.191 | 0.171 | 0.216 | 0.202 | 0.191
6 | NCI-H3122 | 0.0862 | 0.096 | 0.092 | 0.0979 | 0.112 | 0.623 | 0.619 | 0.663 | 0.56 | 0.536 | 0.493 | 0.431 | 0.447 | 0.48 | 0.374 | 0.996 | 1.01 | 0.967 | 1.05 | 1.02
7 | HOP-62 | 0.888 | 1.03 | 0.868 | 0.89 | 0.931 | 0.346 | 0.559 | 0.425 | 0.329 | 0.352 | 0.208 | 0.255 | 0.191 | 0.269 | 0.214 | 0.876 | 0.999 | 1 | 1.24 | 1.1
8 | HCC-44 | 0.981 | 0.976 | 1.12 | 1.11 | 1.02 | 0.976 | 0.977 | 0.949 | 0.996 | 0.92 | 0.926 | 0.936 | 0.97 | 0.962 | 0.92 | 1.01 | 1.02 | 1.03 | 0.938 | 1.01
